{
  "source": "patent US20110105326A1",
  "about": "“Method for Enhancing the Rainfastness of Glyphosate” (BASF SE, priority 2008, published 2011)",
  "type_in_all_cases": "in vivo",
  "key": {"[1]": {"system": "Echinochloa colonum (ECHCO)", "assay": "herbicidal action with/without simulated rainfall after treatment, Echinochloa colonum", "conditions": "1500 g/ha diuron, 1080 g/ha glyphosate; for herbicidal action against Echinochloa colonum (ECHCO): control without simulated rainfall, Example 15.1", "method": "(§1) The enhancement of the rainfastness of glyphosate was determined via the herbicidal activity of the mixture comprising glyphosate and the respective rainfastness enhancing herbicidal component B as well as of the single herbicidal components in relation to simulated rainfall at different time intervals.\n(§2) The evaluation of the damage caused by the method and the compositions the according to the present invention and the single herbicidal components was carried out using a scale from 0 to 100%, compared to the untreated control plots. Here, 0 means no damage and 100 means complete destruction of the plants of a respective weed or crop species.\n(§3) The application was performed with a fixed spayer system with air pressurization and with a tank spray volume of two liters. The speed of the spray device over the plants was adjusted for a spray volume of 200 I/ha. The spray device was a spray barr with four nozzles from the type Teejet XR 11002VS with a space of 50 cm between each nozzle.\n(§4) The application was performed at a weed stage of 6 to 8 leaves. After the application of the formulated herbicides the leaves were washed through rain of 20 mm using a fixed rain simulator system at following time interval: 15 min, 30 min, 1, 2, 3, 4 and 6 hours after treatment."}, "[2]": {"system": "Ipomoea grandifolia (IPOGR)", "assay": "herbicidal action with/without simulated rainfall after treatment, Ipomoea grandifolia", "conditions": "1500 g/ha diuron, 1080 g/ha glyphosate; for herbicidal action against Ipomoea grandifolia (IPOGR): control without simulated rainfall, Example 16.1", "method": "as §1, §2, §3, §4"}, "[3]": {"system": "Brachiaria decumbens (BRADE)", "assay": "herbicidal action with/without simulated rainfall after treatment, Brachiaria decumbens", "conditions": "1500 g/ha diuron, 1080 g/ha glyphosate; for herbicidal action against Brachiaria decumbens (BRADE): control without simulated rainfall, Example 17.1", "method": "as §1, §2, §3, §4"}},
  "data": [
    {"compound": "CN(C)C(=O)Nc1ccc(Cl)c(Cl)c1", "note": "[Diuron, diuron]", "values": [
      {"measurement": "herbicidal action against Echinochloa colonum (ECHCO)", "setting": "[1]; 1 DAA", "value": 0},
      {"measurement": "herbicidal action against Echinochloa colonum (ECHCO)", "setting": "[1]; 2 DAA", "value": 0},
      {"measurement": "herbicidal action against Echinochloa colonum (ECHCO)", "setting": "[1]; 3 DAA", "value": 2.66},
      {"measurement": "herbicidal action against Echinochloa colonum (ECHCO)", "setting": "[1]; 7 DAA", "value": 61},
      {"measurement": "herbicidal action against ECHCO", "setting": "[1]; simulated rainfall 30 min after treatment, 1 DAA, Example 15.2", "value": 0},
      {"measurement": "herbicidal action against ECHCO", "setting": "[1]; simulated rainfall 30 min after treatment, 2 DAA, Example 15.2", "value": 0},
      {"measurement": "herbicidal action against ECHCO", "setting": "[1]; simulated rainfall 30 min after treatment, 3 DAA, Example 15.2", "value": 6},
      {"measurement": "herbicidal action against ECHCO", "setting": "[1]; simulated rainfall 30 min after treatment, 7 DAA, Example 15.2", "value": 75.33},
      {"measurement": "herbicidal action against ECHCO", "setting": "[1]; simulated rainfall 2 hours after treatment, 1 DAA, Example 15.3", "value": 0},
      {"measurement": "herbicidal action against ECHCO", "setting": "[1]; simulated rainfall 2 hours after treatment, 2 DAA, Example 15.3", "value": 0},
      {"measurement": "herbicidal action against ECHCO", "setting": "[1]; simulated rainfall 2 hours after treatment, 3 DAA, Example 15.3", "value": 1.66},
      {"measurement": "herbicidal action against ECHCO", "setting": "[1]; simulated rainfall 2 hours after treatment, 7 DAA, Example 15.3", "value": 58.33},
      {"measurement": "herbicidal action against Ipomoea grandifolia (IPOGR)", "setting": "[2]; 1 DAA", "value": 0},
      {"measurement": "herbicidal action against Ipomoea grandifolia (IPOGR)", "setting": "[2]; 2 DAA", "value": 0},
      {"measurement": "herbicidal action against Ipomoea grandifolia (IPOGR)", "setting": "[2]; 3 DAA", "value": 1.33},
      {"measurement": "herbicidal action against Ipomoea grandifolia (IPOGR)", "setting": "[2]; 7 DAA", "value": 7.33},
      {"measurement": "herbicidal action against IPOGR", "setting": "[2]; simulated rainfall 15 min after treatment, 1 DAA, Example 16.2", "value": 0},
      {"measurement": "herbicidal action against IPOGR", "setting": "[2]; simulated rainfall 15 min after treatment, 2 DAA, Example 16.2", "value": 1},
      {"measurement": "herbicidal action against IPOGR", "setting": "[2]; simulated rainfall 15 min after treatment, 3 DAA, Example 16.2", "value": 3.33},
      {"measurement": "herbicidal action against IPOGR", "setting": "[2]; simulated rainfall 15 min after treatment, 7 DAA, Example 16.2", "value": 21},
      {"measurement": "herbicidal action against IPOGR", "setting": "[2]; simulated rainfall 30 min after treatment, 1 DAA, Example 16.3", "value": 0},
      {"measurement": "herbicidal action against IPOGR", "setting": "[2]; simulated rainfall 30 min after treatment, 2 DAA, Example 16.3", "value": 0},
      {"measurement": "herbicidal action against IPOGR", "setting": "[2]; simulated rainfall 30 min after treatment, 3 DAA, Example 16.3", "value": 3},
      {"measurement": "herbicidal action against IPOGR", "setting": "[2]; simulated rainfall 30 min after treatment, 7 DAA, Example 16.3", "value": 16.66},
      {"measurement": "herbicidal action against IPOGR", "setting": "[2]; simulated rainfall 2 hours after treatment, 1 DAA, Example 16.4", "value": 0},
      {"measurement": "herbicidal action against IPOGR", "setting": "[2]; simulated rainfall 2 hours after treatment, 2 DAA, Example 16.4", "value": 0},
      {"measurement": "herbicidal action against IPOGR", "setting": "[2]; simulated rainfall 2 hours after treatment, 3 DAA, Example 16.4", "value": 0.33},
      {"measurement": "herbicidal action against IPOGR", "setting": "[2]; simulated rainfall 2 hours after treatment, 7 DAA, Example 16.4", "value": 11.66},
      {"measurement": "herbicidal action against IPOGR", "setting": "[2]; simulated rainfall 6 hours after treatment, 1 DAA, Example 16.5", "value": 0},
      {"measurement": "herbicidal action against IPOGR", "setting": "[2]; simulated rainfall 6 hours after treatment, 2 DAA, Example 16.5", "value": 1},
      {"measurement": "herbicidal action against IPOGR", "setting": "[2]; simulated rainfall 6 hours after treatment, 3 DAA, Example 16.5", "value": 2},
      {"measurement": "herbicidal action against IPOGR", "setting": "[2]; simulated rainfall 6 hours after treatment, 7 DAA, Example 16.5", "value": 25.55},
      {"measurement": "herbicidal action against Brachiaria decumbens (BRADE)", "setting": "[3]; 1 DAA", "value": 0},
      {"measurement": "herbicidal action against Brachiaria decumbens (BRADE)", "setting": "[3]; 2 DAA", "value": 0},
      {"measurement": "herbicidal action against Brachiaria decumbens (BRADE)", "setting": "[3]; 3 DAA", "value": 0},
      {"measurement": "herbicidal action against Brachiaria decumbens (BRADE)", "setting": "[3]; 7 DAA", "value": 11},
      {"measurement": "herbicidal action against Brachiaria decumbens (BRADE)", "setting": "[3]; 14 DAA", "value": 78.33},
      {"measurement": "herbicidal action against BRADE", "setting": "[3]; simulated rainfall 2 hours after treatment, 1 DAA, Example 17.2", "value": 0},
      {"measurement": "herbicidal action against BRADE", "setting": "[3]; simulated rainfall 2 hours after treatment, 2 DAA, Example 17.2", "value": 0},
      {"measurement": "herbicidal action against BRADE", "setting": "[3]; simulated rainfall 2 hours after treatment, 3 DAA, Example 17.2", "value": 0},
      {"measurement": "herbicidal action against BRADE", "setting": "[3]; simulated rainfall 2 hours after treatment, 7 DAA, Example 17.2", "value": 56},
      {"measurement": "herbicidal action against BRADE", "setting": "[3]; simulated rainfall 2 hours after treatment, 14 DAA, Example 17.2", "value": 100},
      {"measurement": "herbicidal action against BRADE", "setting": "[3]; simulated rainfall 6 hours after treatment, 1 DAA, Example 17.3", "value": 0},
      {"measurement": "herbicidal action against BRADE", "setting": "[3]; simulated rainfall 6 hours after treatment, 2 DAA, Example 17.3", "value": 0},
      {"measurement": "herbicidal action against BRADE", "setting": "[3]; simulated rainfall 6 hours after treatment, 3 DAA, Example 17.3", "value": 0},
      {"measurement": "herbicidal action against BRADE", "setting": "[3]; simulated rainfall 6 hours after treatment, 7 DAA, Example 17.3", "value": 30},
      {"measurement": "herbicidal action against BRADE", "setting": "[3]; simulated rainfall 6 hours after treatment, 14 DAA, Example 17.3", "value": 100}
    ]}
  ]
}
